We go through 7 molecules from ChEMBL document CHEMBL3108667, “Potent and selective inhibitors of CDPK1 from T. gondii and C. parvum based on a 5-aminopyrazole-4-carboxamide scaffold” (ACS Med Chem Lett, 2014).

Molecules are shown by their SMILES.

One series can be described thus: cells. The conditions noted are these: Homo sapiens, CRL8155.
The target of series [1] is T1, Calmodulin-domain protein kinase 1 (Toxoplasma gondii, UniProt Q9BJF5).
T1 sequence (Q9BJF5 whole entry): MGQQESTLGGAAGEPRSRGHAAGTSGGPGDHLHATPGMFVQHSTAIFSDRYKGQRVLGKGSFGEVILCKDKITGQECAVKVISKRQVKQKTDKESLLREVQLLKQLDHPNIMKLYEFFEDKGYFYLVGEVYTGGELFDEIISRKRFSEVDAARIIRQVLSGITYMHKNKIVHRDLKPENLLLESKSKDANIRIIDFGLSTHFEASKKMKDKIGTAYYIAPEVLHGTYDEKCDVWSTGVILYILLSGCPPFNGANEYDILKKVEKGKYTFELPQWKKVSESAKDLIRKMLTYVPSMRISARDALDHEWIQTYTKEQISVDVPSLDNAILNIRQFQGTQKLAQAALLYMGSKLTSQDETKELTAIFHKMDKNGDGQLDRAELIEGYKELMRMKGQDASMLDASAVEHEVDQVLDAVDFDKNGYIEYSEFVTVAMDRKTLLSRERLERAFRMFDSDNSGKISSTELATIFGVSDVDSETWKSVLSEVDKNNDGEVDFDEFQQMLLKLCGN

The nature of series [2]: in vivo. The conditions noted are these: mouse, plasma, po, 10 mg/kg.
Series [3] in a line: in vivo. The conditions noted are these: mouse, po, 10 mg/kg.

By EC50 is commonly meant the midpoint of the concentration-response curve. Read a low EC50 as an effect from little substance. `CCOc1ccc2cc(-c3nn(C(C)(C)C)c(N)c3C(N)=O)ccc2c1` showed an EC50 in “cells” greater than 30 µM.

As to `NC(=O)c1c(-c2ccc3ccccc3c2)nn(CC(F)(F)F)c1N`, the EC50 in “cells” is greater than 30 µM.

`CC(C)(C)Cn1nc(-c2ccc3ccccc3c2)c(C(N)=O)c1N` returned an EC50 in “cells” greater than 40 µM.

Consider `COc1ccc2cc(-c3nn(C(C)(C)C)c(N)c3C(N)=O)ccc2c1`, for which the EC50 in “cells” is greater than 40 µM.

The term IC50 denotes the concentration needed to halve the response being measured. Read a low IC50 as higher potency. `CC(C)(C)n1nc(-c2ccc3c(N)n[nH]c3c2)c(C(N)=O)c1N` showed an IC50 in series [1] of 0.04 µM.

The molecule `CC(C)(C)n1nc(-c2cnc3ccccc3c2)c(C(N)=O)c1N` displayed an EC50 in the series “cells” greater than 40 µM.

By AUC is commonly meant concentration integrated over time. Lower therefore signals low exposure. As a reminder, the Cmax is the peak of the concentration-time curve. The molecule `CCOc1ccc2cc(-c3nn(C(C)(C)C)c(N)c3C(N)=O)cnc2c1` displayed an EC50 in “cells” greater than 30 µM. Also, the AUC in “in vivo [2]” was 41.7 µM·h. The Cmax at 1 h in the series “in vivo [3]” worked out at 10 µM.
